Laboratory results reported in patent US20040097594A1 (priority 1998, published 2004).
pIC50, pKi: −log10 of the molar value. Like-named read-outs stand apart in the source and are kept apart here.

Legend:
HIV-1 protease = HIV-1 protease (Human immunodeficiency virus type 1 group M subtype B, UniProt P04585); experiment: biochemical
HIV-1 (strain IIIB) = experiment: microbe, parasite or virus in culture; type: cell-based; conditions: Human immunodeficiency virus 1, 120 h; MT4 cells infected with HIV-1 strain IIIB, 5 days; lower line of each compound's entry; read-out: IC50 (MT-4 cells)
[1] = HIV-1 protease, upper line of each compound's entry, read-out: Ki (enzyme)

SMILES | pKi (HIV-1 protease; [1]) | pIC50 (HIV-1 (strain IIIB)) | pKi (HIV-1 protease)
O=C(N[C@@H](Cc1ccccc1)[C@H](O)CN(OC1CCCC1)S(=O)(=O)c1cccc(OCC(=O)N2CCOCC2)c1)O[C@H]1CO[C@H]2OCC[C@H]21 [Compound 135, (3R,3aS,6aR)hexahydrofuro[2,3-b]furan-3-yl N-[(1S,2R)-1-benzyl-3-((cyclopentyloxy)[3-(2-morpholino-2-oxoethoxy)phenyl]sulfonylamino)-2-hydroxypropyl]carbamate] | 8.00 to 9.00 | ≥ 7.00 | 
COC(=O)Nc1nc2cc(S(=O)(=O)N(C[C@@H](O)[C@H](Cc3ccccc3)NC(=O)O[C@H]3CCOC3)OC3CCCC3)ccc2[nH]1 [Compound 53, (3S)Tetrahydro-3-furanyl N-(1S,2R)-1-benzyl-3-[(cyclopentyloxy)(2-[(methoxycarbonyl)amino]-1H-benzimidazol-5-ylsulfonyl)amino]-2-hydroxypropylcarbamate] | > 9.00 | ≥ 7.00 | 
Nc1ccc(S(=O)(=O)N(C[C@@H](O)[C@H](Cc2ccccc2)NC(=O)O[C@H]2CO[C@H]3OCC[C@H]32)OC2CCCCC2)cc1 [Compound 153, (3R,3aS,6aR)hexahydrofuro[2,3-b]furan-3-yl(1S,2R)-3-[[(4-aminophenyl)sulfonyl](cyclohexyloxy)amino]-1-benzyl-2-hydroxypropylcarbamate] | > 9.00 | ≥ 7.00 | 
O=C(N[C@@H](Cc1ccccc1)[C@H](O)CN(OC1CCOCC1)S(=O)(=O)c1ccc(O)cc1)O[C@H]1CO[C@H]2OCC[C@H]21 [Compound 149, (3R,3aS,6aR)hexahydrofuro[2,3-b]furan-3-yl 1-benzyl-2-hydroxy-3-[[(4-hydroxyphenyl)sulfonyl](tetrahydro-2H-pyran-4-yloxy)amino]propylcarbamate] | > 9.00 | ≥ 7.00 | 
O=C(N[C@@H](Cc1ccccc1)[C@H](O)CN(OC1CCCCC1)S(=O)(=O)c1ccc(O)cc1)O[C@H]1CO[C@H]2OCC[C@H]21 [Example 160, (3R,3aS,6aR)hexahydrofuro[2,3-b]furan-3-yl(1S,2R)-1-benzyl-3-{(cyclohexyloxy)[(4-hydroxyphenyl)sulfonyl]amino}-2-hydroxypropylcarbamate] | > 9.00 | ≥ 7.00 | 
O=C(N[C@@H](Cc1ccccc1)[C@H](O)CN(OC1CCCCC1)S(=O)(=O)c1cccc(O)c1)O[C@H]1CO[C@H]2OCC[C@H]21 [Example 159, (3R,3aS,6aR)hexahydrofuro[2,3-b]furan-3-yl(1S,2R)-1-benzyl-3-{(cyclohexyloxy)[(3-hydroxyphenyl)sulfonyl]amino}-2-hydroxypropylcarbamate] | > 9.00 | ≥ 7.00 | 
CC(C)COC(=O)N(CC(=O)NCCO)c1cccc(S(=O)(=O)N(CC(O)C(Cc2ccccc2)NC(=O)OC2COC3OCCC23)OC2CCCC2)c1 [Compound 37, (3R,3aS,6aR)hexahydrofuro[2,3-b]furan-3-yl N-(1S,2R)-1-benzyl-3-[(cyclopentyloxy)(3-[2-[(2-hydroxyethyl)amino]-2-oxoethyl(isobutoxycarbonyl)amino)phenylsulfonyl)amino]-2-hydroxypropylcarbamate and (3S,3aR,6aS)hexahydrofuro[2,3-b]furan-3-yl N-(1S,2R)-1-benzyl-3-[(cyclopentyloxy)(3-[2-[(2-hydroxyethyl)amino]-2-oxoethyl(isobutoxycarbonyl)amino]phenylsulfonyl)amino]-2-hydroxypropylcarbamate] | > 9.00 | ≥ 7.00 | 
NC(=O)c1cccc(S(=O)(=O)N(C[C@@H](O)[C@H](Cc2ccccc2)NC(=O)O[C@H]2CO[C@H]3OCC[C@H]32)OC2CCCC2)c1 [Example 173, (3R,3aS,6aR)hexahydrofuro[2,3-b]furan-3-yl N-(1S,2R)-3[[(3-carbamoylphenyl)sulfonyl](cyclopentyloxy)amino]-1-benzyl-2-hydroxypropyl carbamate] | > 9.00 | ≥ 7.00 | 
NCCNc1cccc(S(=O)(=O)N(CC(O)C(Cc2ccccc2)NC(=O)OC2COC3OCCC23)OC2CCCC2)c1 [Compound 83, (3R,3aS,6aR)hexahydrofuro[2,3-b]furan-3-yl N-(1S,2R)-3-[(3[(2-aminoethyl)amino]phenylsulfonyl)(cyclopentyloxy)amino]-1-benzyl-2-hydroxypropylcarbamate and (3S,3aR,6aS)hexahydrofuro[2,3-b]furan-3-yl N-(1S,2R)-3-[(3[(2-aminoethyl)amino]phenylsulfonyl)(cyclopentyloxy)amino]-1-benzyl-2-hydroxypropylcarbamate] | > 9.00 | 6.30 to 7.00 | 
COc1ccc(S(=O)(=O)N(C[C@@H](O)[C@H](Cc2ccccc2)NC(=O)OCc2cccnc2)OC2CCCC2)cc1 [Compound 25, 3-pyridylmethyl N-((1S,2R)-1-benzyl-3-(cyclopentyloxy)[(4-methoxyphenyl)sulfonyl]amino-2-hydroxypropyl)carbamate] | > 9.00 | 6.00 to 6.30 | 
CC(C)ON(C[C@@H](O)[C@H](Cc1ccccc1)NC(=O)O[C@H]1CCOC1)S(=O)(=O)c1cccc(N)c1 [Compound 61, (3S)tetrahydro-3-furanyl N-(1S,2R)-3-[[(3-aminophenyl)sulfonyl](isopropoxy)amino]-1-benzyl-2-hydroxypropylcarbamate] | 8.00 to 9.00 | 6.00 to 6.30 | 
COc1ccc(S(=O)(=O)N(C[C@@H](O)[C@H](Cc2ccccc2)NC(=O)O[C@H]2CO[C@@H]3OCC[C@@H]32)OC2CCCC2)cc1 [Compound 116] | < 7.00 | 6.00 to 6.30 | 
CC(C)(C)OC(=O)N[C@@H](Cc1ccccc1)[C@H](O)CN(OC1CCCC1)S(=O)(=O)c1ccc2[nH]c(=O)[nH]c2c1 [Compound 131, tert-Butyl-N-((1S,2R)-1-benzyl-3-(cyclopentyloxy)(2-oxybenzimidazol-5-ylsulfonyl)amino-2-hydroxypropyl)carbamate] | > 9.00 | ≥ 7.00 | 
O=C(N[C@@H](Cc1ccccc1)[C@H](O)CN(OC1CCOCC1)S(=O)(=O)c1ccc2c(c1)OCCO2)O[C@H]1CO[C@H]2OCC[C@H]21 [Compound 150, (3R,3aS,6aR)hexahydrofuro[2,3-b]furan-3-yl 1-benzyl-3-[(2,3-dihydro-1,4-benzodioxin-6-ylsulfonyl)(tetrahydro-2H-pyran-4-yloxy)amino]-2-hydroxypropylcarbamate] | > 9.00 | ≥ 7.00 | 
COc1ccc(S(=O)(=O)N(C[C@@H](O)[C@H](Cc2ccccc2)NC(=O)OC(C)(C)C)Oc2ccccc2)cc1 [Compound 17, tert-butyl N-(1S,2R)-1-benzyl-2-hydroxy-3-[[(4-methoxyphenyl)sulfonyl](phenoxy)amino]propylcarbamate] | 7.00 to 8.00 | < 6.00 | 
COc1ccc(S(=O)(=O)N(C[C@@H](O)[C@H](Cc2ccccc2)NC(=O)OC2CO[C@H]3OCC[C@@H]23)OC2CCCCC2)cc1 (stereo partly drawn) [Compound 134, (3R,3aS,6aR)hexahydrofuro[2,3-b]furan-3-yl N-((1S,2R)-1-benzyl-3-(cyclohexyloxy)[(4-methoxyphenyl)sulfonyl]amino-2-hydroxypropyl)carbamate] |  | ≥ 7.00 | > 9.00
COC(=O)Nc1nc2cc(S(=O)(=O)N(C[C@@H](O)[C@H](Cc3ccccc3)NC(=O)OC(C)(C)C)OC3CCCC3)ccc2[nH]1 [Compound 130, tert-Butyl-N-((1S,2R)-1-benzyl-3-(cyclopentyloxy)(2-[(methoxycarbonyl)amino]benzimidazol-5-ylsulfonyl)amino-2-hydroxypropyl)carbamate] | > 9.00 | ≥ 7.00 | 
CNC(=O)NCCNc1cccc(S(=O)(=O)N(CC(O)C(Cc2ccccc2)NC(=O)OC2COC3OCCC23)OC2CCCC2)c1 [Compound 121, (3R,3aS,6aR)hexahydrofuro[2,3-b]furan-3-yl N-(1S,2R)-1-benzyl-3-[(cyclopentyloxy)(3-[(2-[(methylamino)carbonyl]aminoethyl)amino]phenylsulfonyl)amino]-2-hydroxypropylcarbamate and (3S,3aR,6aS)hexahydrofuro[2,3-b]furan-3-yl N-(1S,2R)-1-benzyl-3-[(cyclopentyloxy)(3-[(2-[(methylamino)carbonyl]aminoethyl)amino]phenylsulfonyl)amino]-2-hydroxypropylcarbamate] | > 9.00 | 6.30 to 7.00 | 
O=C(NC(Cc1ccccc1)C(O)CN(OC1CCCC1)S(=O)(=O)c1cccc(NCC(=O)N2CCOCC2)c1)OC1COC2OCCC12 [Compound 87, (3R,3aS,6aR)hexahydrofuro[2,3-b]furan-3-yl N-(1S,2R)-1-benzyl-3-[(cyclopentyloxy)(3-[(2-morpholino-2-oxoethyl)amino]phenylsulfonyl)amino]-2-hydroxypropylcarbamate and (3S,3aR,6aS)hexahydrofuro[2,3-b]furan-3-yl N-(1S,2R)-1-benzyl-3-[(cyclopentyloxy)(3-[(2-morpholino-2-oxoethyl)amino]phenylsulfonyl)amino]-2-hydroxypropylcarbamate] | > 9.00 | ≥ 7.00 | 
CC(C)ON(C[C@@H](O)[C@H](Cc1ccccc1)NC(=O)O[C@H]1CO[C@H]2OCC[C@H]21)S(=O)(=O)c1cccc(N(C)C(=O)OC(C)(C)C)c1 [Compound 126] | < 7.00 | < 6.00 | 
CON(C)C(=O)CNc1cccc(S(=O)(=O)N(CC(O)C(Cc2ccccc2)NC(=O)OC2COC3OCCC23)OC2CCCC2)c1 (mixture of isomers) [Compound 88, (3R,3aS,6aR)hexahydrofuro[2,3-b]furan-3-yl N-[(1S,2R)-1-benzyl-3-((cyclopentyloxy)[3-(2-[methoxy(methyl)amino]-2-oxoethylamino)phenyl]sulfonylamino)-2-hydroxypropyl]carbamate and (3S,3aR,6aS)hexahydrofuro[2,3-b]furan-3-yl N-[(1S,2R)-1-benzyl-3-((cyclopentyloxy)[3-(2[methoxy(methyl)amino]-2-oxoethylamino)phenyl]sulfonylamino)-2-hydroxypropyl]carbamate] | > 9.00 | ≥ 7.00 | 
